Assay [1] has as its system multiple tumor cell types. Briefly: ATP production in tumor cells (luciferin-luciferase). Type of assay: cell-based, human. On the procedure:
(§1) Intracellular ATP concentrations were measured by the luciferin—luciferase method using an ATP measuring kit (Biochain). The ATP concentration in each extract was measured with a microplate luminometer (Beckman Coulter) against standard ATP solutions used as reference. In some experiments, PC3 or LN229 cells were preincubated with sodium pyruvate for 7 h in the presence of vehicle or Gamitrinib before determination of ATP production.

The test system of assay [2] is LN229 cells. In words: ROS production, H2-DCFA labeling. Particulars: cytotoxic or non-cytotoxic concentrations, various time intervals. It counts as cell-based, human.
The subject of another assay is NIH3T3 fibroblasts. Briefly: ATP production and AMPK/mTORC1 phosphorylation in non-transformed cells. It counts as cell-based. On the procedure: (§2) For Western blotting, protein lysates were prepared from the different cell types in RIPA Buffer (150 mM NaCl, 1.0% Triton X-100, 0.5% sodium deoxycholate, 0.1% SDS, 50 mM Tris, pH 8.0) containing EDTA-free Protease Inhibitor Cocktail (Roche) and Phosphatase Inhibitor Cocktail 2 and 3 (Sigma Aldrich). Equal amounts of protein lysates were separated by SDS gel electrophoresis, transferred to PVDF membranes and incubated with primary antibodies of various specificities. Protein bands were detected by chemiluminescence.
as §1

The next assay relates to tumor cells. Briefly: Autophagy (LC3 conversion, LC3-CFP puncta). Type of assay: cell-based, human. On the procedure: LN229 cells were transfected with various siRNAs, and mixed after 24 h with plasmid encoding cyan fluorescent protein (CFP) fused to human […] (LC3) cDNA in the presence of Lipofectamine 2000 Transfection Reagent (Invitrogen). After 48 h, transfected cells were fixed in 4% paraformaldehyde for 15 min at 37° C., washed, and examined by fluorescence microscopy (Nikon, E600). The numbers of CFP-LC3 punctate dots per cell was determined from three independent experiments. A minimum of 50 CFP-LC3-positive cells assessed from at least ten random fields per sample were counted in triplicate per each condition.
(§3) Samples were imaged using a Leica TCS SP2 confocal microscope. For determination of autophagy, cells under the various conditions tested were harvested after 12 h, and analyzed with an antibody to […] (LC3) by Western blotting.

Assay [3] concerns V600E mutant BRAF melanoma cells. In words: AMPK and autophagy signaling in mutant BRAF melanoma cells. It counts as cell-based, human.
Excerpt: Human glioblastoma LN229, prostate adenocarcinoma PC3 or LNCaP cells, or normal NIH3T3 fibroblasts were obtained from the American Tissue Culture Collection (ATCC, Manassas, Va.), and maintained in culture according to the supplier's specifications. The following wild type (WT) BRAF N-Ras mutant melanoma cells WM852 and WM1366, and melanoma cells carrying a V600E activating mutation in the BRAF oncogene, 451Lu, Me11617 and WM983B were used in this study. WT or CypD knockout Mouse Embryonic Fibroblasts (MEFs, CypD−/−) were characterized earlier 40. In some experiments, CypD−/− MEFs were stably transfected with control plasmid, WT CypD or peptidyl prolyl isomerase (PPIase)-deficient H168Q CypD mutant cDNA, and analyzed for differential recruitment of HK-II to mitochondrial or cytosolic fractions.
as §2, §3

For the next assay, the system named is WT BRAF spheroids. In words: 3D organotypic spheroids, WT BRAF. Type of assay: cell-based, human. To be noted: collagen-embedded, 72 h. On the procedure: For analysis of tumor cell survival in 3D organotypic cultures, melanoma spheroids were prepared as previously described. Briefly, 50 μl aliquots of the various melanoma cell types (5×10^4 cells/ml) were seeded onto 96-well plates coated with 1.5% agar (Difco, Sparks, Md.) in PBS. Spheroids were allowed to form for 72 h and then embedded in 100 μl of bovine collagen type I (Organogenesis, Canton, Mass.). Spheroids were overlaid with 100 μl of Tu2% growth medium and treated with inhibitors for 72 hours. Quantification of live vs. dead cells under the various conditions tested was performed by staining the melanoma spheroids after 72 h of treatment with calcein-AM (live) and Topro-3 (dead) (Invitrogen) for 1 h (data not shown).

The test system of the next assay is TRAMP mice prostate. In words: Immunohistochemistry of TRAMP prostate tissues. Type of assay: in vivo, mouse. To be noted: PIN lesions. On the procedure:
The preclinical studies to test the efficacy and safety of Gamitrinib in a genetic mouse model of prostate cancer in immunocompetent TRAMP (Transgenic Adenocarcinoma of the Mouse Prostate) mice have been described (Kang et al., 2011). In this model, Gamitrinib was given systemically (5 mg/kg i.p. with the schedule 3 d on/2 d off) to TRAMP mice starting at 21.9 weeks of age (group 1) or 14.7 weeks of age (group 2), for 3 weeks or 5 weeks, respectively. In the control group, TRAMP mice of 24 weeks of age received vehicle. At the end of the experiment, animals in the vehicle or Gamitrinib groups were sacrificed and analyzed for localized and metastatic prostate cancer of adenocarcinoma or neuroendocrine histologic type (Kang et al., 2011).
For analysis of patient-derived or TRAMP tissues, slides were microwaved for 35 min in EDTA solution. Sections (4-μm thick) were cut from all TMA blocks and TRAMP-derived prostatic tumors and stained with a rabbit polyclonal antibody to Grp78 (1:1000) for 30 min at 22° C. IHC was performed using a Ventana BenchMark Ultra autostainer (Ventana Medical Systems), with the ultraView Universal DAB Detection Kit (Ventana) for detection of antibody reactivity. All slides were counterstained with hematoxylin Immunoreactivity for Grp78 was evaluated by two pathologists (S.F. and S.B.) and independently scored for cytoplasmic localization. When discrepancies in scoring occurred, a consensus interpretation was reached after re-examination. The percentage of immunoreactive epithelial cells was determined and assigned to one of the following four categories: 0, (0%); 1, (1%-9%); 2, (10%-49%) and 3, (50%-100%). The intensity of immunostaining was scored as absent (0), mild (1), moderate (2) or strong (3). In the case of TMA, the two parameters were multiplied to generate a weighted score for each case that ranged from 0 to 9. Cases with weighted score 0 were defined as negative. Among AdCa samples in the series under investigation, 17 cases were negative for Grp78 expression, whereas 0 cases of SCC were Grp78-negative. […]

Assay [4] has as its system LN229 cells. Briefly: Apoptosis by annexin V / PI flow cytometry. Type of assay: cell-based, human. To be noted: HK-II silenced cells vs control transfectants. On the procedure: Various cell types were seeded in triplicate onto 96-well plates at 4×10^3 cells/well, treated with vehicle, Gamitrinib or 17-AAG (0-20 μM) for 12 h, and analyzed for changes in metabolic activity by an MTT assay. For determination of apoptosis, LN229 cells ([…]) were labeled for annexin V and propidium iodide (PI) (BD Biosciences), and analyzed by multiparametric flow cytometry (BD).

Each structure is given as a SMILES string.

In the case of `CO[C@H]1/C=C\C=C(/C)C(=O)NC2=CC(=O)C(NCCCCCC[P+](c3ccccc3)(c3ccccc3)c3ccccc3)=C(C[C@@H](C)C[C@H](OC)[C@H](O)[C@@H](C)/C=C(\C)[C@@H]1OC(N)=O)C2=O` [Gamitrinib], the “time to inhibition of ATP production” value in assay [1] (multiple tumor cell types) is given as at most 5 h. In assay [1] (tumor cell types, non-cytotoxic concentrations, 5 h), the ATP production entry is “concentration-dependent inhibition of ATP production”. Moreover, the “production of reactive oxygen species (ROS)” value in the assay on LN229 cells [2] is recorded as “had no effect on production of reactive oxygen species (ROS)”. Besides, in the assay with NIH3T3 fibroblasts, the “ATP production, AMPK or mTORC1 phosphorylation” value is “did not affect ATP production, or AMPK or mTORC1 phosphorylation”. The “autophagy (LC3-II conversion)” value with tumor cells is “strongly activated autophagy”. The autophagy result in assay [3] (BRAF mutant cells) is given as “did not adaptively increase autophagy”. Also, the AMPK activation entry in assay [3] (BRAF mutant melanoma cells) was “failed to activate AMPK”. Further, the “cell death in 3D spheroids” value in the assay with WT BRAF spheroids is recorded as “resistant to cell death”. In the assay with TRAMP mice prostate, the GRP78 expression result is on record as “upregulation of GRP78”; the “autophagy, LC3 conversion” value is on record as “induction of autophagy, i.e. LC3 conversion”; the “phosphorylated AMPK expression” value is “increased expression of phosphorylated AMPK”. The “Annexin V labeling” value with LN229 cells [4] is reported as “increased Annexin V labeling”.

These data come from patent US20160015725A1, “METHODS OF CONTROLLING TUMOR BIOENERGETICS NETWORKS” (THE WISTAR INSTITUTE OF ANATOMY AND BIOLOGY, priority 2012, published 2016).
